These results are taken from patent publication US8178506B2, “Oligomeric compounds and compositions for use in modulation of small non-coding RNAs” (Regulus Therapeutics Inc., priority 2003, dated 2012).

In the oligonucleotide strings, read from the 5' end, every base follows the letter of its sugar. An asterisk marks phosphorothioate; unmarked linkages are phosphodiester. Other units and linkages are bracketed, terminal groups are in braces. A string of capitals states the bases alone. e = 2'-O-(2-methoxyethyl) (MOE); [5mC] = 5-methylcytosine

The test system of one data set is mir-21 pri-miRNA. In words: mir-21 pri-miRNA expression in HeLa cells (real-time RT-PCR). Type of data set: cell-based, human. As to conditions: HeLa cells, 100 nM, real-time RT-PCR.
In another data set the test system is ERK5 protein. The data set is described as follows: Immunoblot of ERK5 protein in differentiating adipocytes. Type of data set: cell-based, human. As to conditions: differentiating adipocytes 7- and 10-days post-differentiation, 250 nM. On the procedure: When miRNAs have effects on the expression of downstream genes or proteins encoded by these genes, it is advantageous to measure the protein levels of those gene products, and to do this, western blot (immunoblot) analysis is employed. Immunoblot analysis is carried out using standard methods. Briefly, preadipocytes and differentiating adipocytes were cultured as described previously, and differentiating adipocytes are sampled at several timepoints after stimulation of differentiation. Cells were treated with 250 nM oligomeric compounds and harvested 16-20 h after oligomeric compound treatment. Cells were washed, lysed in RIPA buffer with protease inhibitor cocktail (Roche Diagnostics Corporation, Indianapolis, Ind.), suspended in Laemmli buffer (20 ul/well), boiled for 5 minutes and loaded onto either an 8% SDS-PAGE or a 4-20% gradient SDS-PAGE gel. Gels are run for approximately 1.5 hours at 150 V, and transferred to PVDF membrane for western blotting. […] Bands are visualized and quantitated using a PHOSPHORIMAGER™ (Molecular Dynamics, Sunnyvale Calif.) or the ChemiDoc™ system (Bio-Rad Laboratories, Inc., Hercules, Calif.). Thus, the effects of treatment of many cell types (including, but not limited to, preadipocytes, differentiating adipocytes, HeLa, T-24 and A549 cells) with oligomeric compounds of the present invention on the levels of gene expression products can be assessed. […]
In general terms: Immunoblotting shows a protein as a band on a membrane.

In the case of “327917 (antisense eT*e[5mC]*eA*eA*e[5mC]*eA*eT*e[5mC]*eA*eG*eT*e[5mC]*eT*eG*eA*eT*eA*eA*eG*e[5mC]*eT*eA) [compound 327917]”, the “mir-21 pri-miRNA expression % UTC” value in the data set on mir-21 pri-miRNA amounted to 249 % UTC.
Take “TGAGCTACAGTGCTTCATCTCA [ISIS 327901] (chemistry not given here) [uniform 2′-MOE PS; targets mir-143]”: the “ERK5 protein levels vs pre-adipocytes or untreated differentiating adipocytes” value with ERK5 protein is reported as 2-2.5 fold.
